The results in this text go back to patent US8716281B2, “Pyrimidine compounds that inhibit anaplastic lymphoma kinase” (Amgen Inc., priority 2010, dated 2014).

Read-outs that look alike come from different tables or passages of the source.

The assay deals with T1, wild-type human ALK cytoplasmic domain (amino acids 1058-1620) (Homo sapiens, UniProt Q9UM73).
T1 construct: The cytoplasmic domain (amino acids 1058-1620) of wild-type human ALK; GST (N); made in house; host or cells: SF9 insect cells
As to the kind of experiment: ALK Inhibition in Enzyme Assay (Lance TR-FRET). The class given is biochemical. The protocol: ALK Inhibition in Enzyme Assay
Kinase activity of the purified protein was assessed using a Lance® TR-FRET assay. […] The reaction was allowed to proceed for 90 minutes at room temperature and was then terminated with 20 mM EDTA in 50 mM Tris (pH 7.5), 100 mM NaCl, 0.05% BSA, and 0.1% Tween-20. Phosphorylation of the peptide substrate was detected using the Lance® detection reagents streptavidin-allophycocyanin (SA-APC) and Eu-W1024 anti-phosphotyrosine antibody (PT66) from Perkin Elmer Life Sciences (Waltham, Mass.). The plates were read on a RUBY star plate reader (BMG LABTECH, Cary, N.C.) with an excitation wavelength of 320 nm.
For orientation: Time-resolved FRET reads energy transfer from a long-lived donor to a nearby acceptor.

The mark [1] stands for this setting: 2 nM enzyme, ATP at 40 μM (Km apparent), 90 minutes, mean of three replicates, read-out: ALK IC50.

T1 sequence (Q9UM73 1058-1620): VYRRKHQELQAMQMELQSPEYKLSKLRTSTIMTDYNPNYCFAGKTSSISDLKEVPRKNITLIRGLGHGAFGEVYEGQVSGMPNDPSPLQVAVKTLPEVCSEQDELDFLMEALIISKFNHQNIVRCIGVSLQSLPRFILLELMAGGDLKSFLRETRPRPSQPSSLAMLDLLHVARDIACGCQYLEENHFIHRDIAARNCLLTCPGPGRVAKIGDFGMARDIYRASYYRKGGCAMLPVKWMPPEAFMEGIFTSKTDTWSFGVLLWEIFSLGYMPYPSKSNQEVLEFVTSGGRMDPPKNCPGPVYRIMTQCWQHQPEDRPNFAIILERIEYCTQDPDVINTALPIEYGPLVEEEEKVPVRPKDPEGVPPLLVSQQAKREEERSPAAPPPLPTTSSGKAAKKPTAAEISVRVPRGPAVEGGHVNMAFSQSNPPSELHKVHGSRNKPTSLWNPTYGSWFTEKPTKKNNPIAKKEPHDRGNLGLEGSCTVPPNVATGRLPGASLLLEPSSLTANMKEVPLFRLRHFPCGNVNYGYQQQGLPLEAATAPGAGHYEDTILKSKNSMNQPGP

A word on the IC50: it is the midpoint of a concentration-inhibition curve. For `COc1cc(Nc2nccc(N3CCC[C@H](C(=O)NCCc4ccc(Br)cc4)C3)n2)cc(OC)c1OC` [Example 60, (S)-N-(2-(4-bromophenyl)ethyl)-1-(2-((3,4,5-trimethoxyphenyl)amino)-4-pyrimidinyl)-3-piperidinecarboxamide], under setting [1], the IC50 is 50 to 100 nM.
Still for that read-out and setting: then `COc1cc(Nc2nccc(N3CCC[C@H](C(=O)NCCc4cn5ccccc5n4)C3)n2)cc(OC)c1OC` [Example 61, (S)-N-(2-imidazo[1,2-a]pyridin-2-ylethyl)-1-(2-((3,4,5-trimethoxyphenyl)amino)-4-pyrimidinyl)-3-piperidinecarboxamide], with 5000 to 10000 nM; and `COc1cc(Nc2nccc(N3CCC[C@H](C(=O)NCCOc4ccccc4)C3)n2)cc(OC)c1OC` [Example 62, (S)-N-(2-phenoxyethyl)-1-(2-((3,4,5-trimethoxyphenyl)amino)-4-pyrimidinyl)-3-piperidinecarboxamide], with 100 to 1000 nM.
Still for that read-out and setting: to `COc1cc(Nc2nccc(N3CCC[C@H](C(=O)NCc4ccc5ccsc5c4)C3)n2)cc(OC)c1OC` [Example 64, (S)-N-(1-benzothiophen-6-ylmethyl)-1-(2-((3,4,5-trimethoxyphenyl)amino)-4-pyrimidinyl)-3-piperidinecarboxamide] belongs 100 to 1000 nM; to `COc1cc(Nc2nccc(N3CCC[C@H](C(=O)NCc4ccc(Cl)c(Cl)c4)C3)n2)cc(OC)c1OC` [Example 65, (S)-N-(3,4-dichlorobenzyl)-1-(2-((3,4,5-trimethoxyphenyl)amino)-4-pyrimidinyl)-3-piperidinecarboxamide], 100 to 1000 nM.
On the same count and under the same terms, to `COc1ccc(CNC(=O)[C@H]2CCCN(c3ccnc(Nc4cc(OC)c(OC)c(OC)c4)n3)C2)cc1OC` [Example 66, (S)-N-(3,4-dimethoxybenzyl)-1-(2-((3,4,5-trimethoxyphenyl)amino)-4-pyrimidinyl)-3-piperidinecarboxamide] belongs 1000 to 5000 nM.
Take `COc1cc(Nc2nccc(N3CCC[C@H](C(=O)NCc4ccc(F)c(F)c4)C3)n2)cc(OC)c1OC` [Example 67, (S)-N-(3,4-difluorobenzyl)-1-(2-((3,4,5-trimethoxyphenyl)amino)-4-pyrimidinyl)-3-piperidinecarboxamide]: the IC50 under setting [1] was 100 to 1000 nM.
On to `COc1cc(Nc2nccc(N3CCC[C@H](C(=O)NCc4ccc(F)c(Cl)c4)C3)n2)cc(OC)c1OC` [Example 68, (S)-N-(3-chloro-4-fluorobenzyl)-1-(2-((3,4,5-trimethoxyphenyl)amino)-4-pyrimidinyl)-3-pipcridinecarboxamide], for which, under setting [1], the IC50 is 100 to 1000 nM.
With `COc1cc(Nc2nccc(N3CCC[C@H](C(=O)NCc4ccc(C(C)(C)C)cc4)C3)n2)cc(OC)c1OC` [Example 70, (S)-N-(4-tert-butylbenzyl)-1-(2-((3,4,5-trimethoxyphenyl)amino)-4-pyrimidinyl)-3-piperidinecarboxamide], the IC50 under setting [1] is less than 50 nM.
`COc1cc(Nc2nccc(N3CCC[C@H](C(=O)NCc4ccc([N+](=O)[O-])cc4)C3)n2)cc(OC)c1OC` [Example 71, (S)-N-(4-nitrobenzyl)-1-(2-((3,4,5-trimethoxyphenyl)amino)-4-pyrimidinyl)-3-piperidinecarboxamide] came in with an IC50 of 1000 to 5000 nM.
Regarding `COc1cc(Nc2nccc(N3CCC[C@H](C(=O)NCc4ccc(Oc5ccc(F)cc5)cc4)C3)n2)cc(OC)c1OC` [Example 72, (S)-N-(4-(4-fluorophenoxy)benzyl)-1-(2-((3,4,5-trimethoxyphenyl)amino)-4-pyrimidinyl)-3-piperidinecarboxamide], the IC50 under setting [1] was in the range of 100 to 1000 nM.
Still for that read-out and setting: then `COc1cc(Nc2nccc(N3CCC[C@H](C(=O)NCc4ccc5c(c4)CCCN5C)C3)n2)cc(OC)c1OC` [Example 73, (S)-N-((1-methyl-1,2,3,4-tetrahydro-6-quinolinyl)methyl)-1-(2-((3,4,5-trimethoxyphenyl)amino)-4-pyrimidinyl)-3-piperidinecarboxamide], with 1000 to 5000 nM.
Turning to `COc1cc(Nc2nccc(N3CCC[C@H](C(=O)NCc4ccc(C)c(Cl)c4)C3)n2)cc(OC)c1OC` [Example 74, (S)-N-(3-chloro-4-methylbenzyl)-1-(2-((3,4,5-trimethoxyphenyl)amino)-4-pyrimidinyl)-3-piperidinecarboxamide], the IC50 under setting [1] was in the range of 100 to 1000 nM.
For the molecule `COc1cc(Nc2nccc(N3CCC[C@H](C(=O)NCc4ccc(OC(F)F)cc4)C3)n2)cc(OC)c1OC` [Example 75, (S)-N-(4-(difluoromethoxy)benzyl)-1-(2-((3,4,5-trimethoxyphenyl)amino)-4-pyrimidinyl)-3-piperidinecarboxamide], the IC50 under setting [1] was less than 50 nM.
Still for that read-out and setting: then `COc1cc(Nc2nccc(N3CCC[C@H](C(=O)NCc4ccc5[nH]c(C)cc5c4)C3)n2)cc(OC)c1OC` [Example 76, (S)-N-((2-methyl-1H-indol-5-yl)methyl)-1-(2-((3,4,5-trimethoxyphenyl)amino)-4-pyrimidinyl)-3-piperidinecarboxamide], with 50 to 100 nM; and `COc1cc(Nc2nccc(N3CCC[C@H](C(=O)NCc4ccc5c(c4)OCCO5)C3)n2)cc(OC)c1OC` [Example 77, (S)-N-(2,3-dihydro-1,4-benzodioxin-6-ylmethyl)-1-(2-((3,4,5-trimethoxyphenyl)amino)-4-pyrimidinyl)-3-piperidinecarboxamide], with 1000 to 5000 nM.
On the same count and under the same terms, then `COc1cc(Nc2nccc(N3CCC[C@H](C(=O)NCc4ccc(N5CCOCC5)cc4)C3)n2)cc(OC)c1OC` [Example 78, (S)-N-(4-(4-morpholinyl)benzyl)-1-(2-((3,4,5-trimethoxyphcnyl)amino)-4-pyrimidinyl)-3-piperidinecarboxamide], with 1000 to 5000 nM; and `COc1cc(Nc2nccc(N3CCC[C@H](C(=O)NCc4cccc(OC(F)F)c4)C3)n2)cc(OC)c1OC` [Example 79, (S)-N-(3-(difluoromethoxy)benzyl)-1-(2-((3,4,5-trimethoxyphenyl)amino)-4-pyrimidinyl)-3-piperidinecarboxamide], with less than 50 nM.
In the case of `COc1cc(Nc2nccc(N3CCC[C@H](C(=O)NCc4cc(C)cc(C)c4)C3)n2)cc(OC)c1OC` [Example 81, (S)-N-(3,5-dimethylbenzyl)-1-(2-((3,4,5-trimethoxyphenyl)amino)-4-pyrimidinyl)-3-piperidinecarboxamide], the IC50 under setting [1] was 5000 to 10000 nM.
With `COc1cc(Nc2nccc(N3CCC[C@H](C(=O)NCc4ccc(C)c(C)c4)C3)n2)cc(OC)c1OC` [Example 83, (S)-N-(3,4-dimethylbenzyl)-1-(2-((3,4,5-trimethoxyphenyl)amino)-4-pyrimidinyl)-3-piperidinecarboxamide], the IC50 under setting [1] lay within 100 to 1000 nM.
Same read-out and setting: to `COc1cc(Nc2nccc(N3CCC[C@H](C(=O)NCc4cccc(NS(C)(=O)=O)c4)C3)n2)cc(OC)c1OC` [Example 84, (S)-N-(3-((methylsulfonyl)amino)benzyl)-1-(2-((3,4,5-trimethoxyphenyl)amino)-4-pyrimidinyl)-3-piperidinecarboxamide] belongs 1000 to 5000 nM.
As for `COc1cc(Nc2nccc(N3CCC[C@H](C(=O)NCc4cccc(N5CCOCC5)c4)C3)n2)cc(OC)c1OC` [Example 85, (S)-N-(3-(4-morpholinyl)benzyl)-1-(2-((3,4,5-trimethoxyphenyl)amino)-4-pyrimidinyl)-3-piperidinecarboxamide], the IC50 is less than 50 nM.
Consider `COc1cc(Nc2nccc(N3CCC[C@H](C(=O)NCc4ccc(C(F)(F)F)c(F)c4)C3)n2)cc(OC)c1OC` [Example 86, (S)-N-(3-fluoro-4-(tritluoromethyl)benzyl)-1-(2-((3,4,5-trimethoxyphenyl)amino)-4-pyrimidinyl)-3-piperidinecarboxamide], for which the IC50 under setting [1] lay within 100 to 1000 nM.
Same read-out and setting: to `COc1cc(Nc2nccc(N3CCC[C@H](C(=O)NCc4cccc(OC(C)C)c4)C3)n2)cc(OC)c1OC` [Example 87, (S)-N-(3-(1-methylethoxy)benzyl)-1-(2-((3,4,5-trimethoxyphenyl)amino)-4-pyrimidinyl)-3-piperidinecarboxamide] belongs 100 to 1000 nM; to `COc1cc(Nc2nccc(N3CCC[C@H](C(=O)NCc4ccc(OC(C)C)cc4)C3)n2)cc(OC)c1OC` [Example 88, (S)-N-(4-(1-methylethoxy)benzyl)-1-(2-((3,4,5-trimethoxyphenyl)amino)-4-pyrimidinyl)-3-piperidinecarboxamide], 50 to 100 nM.
On the same count and under the same terms, to `COc1cc(Nc2nccc(N3CCC[C@H](C(=O)NCCc4cccc(C)c4)C3)n2)cc(OC)c1OC` [Example 89, (S)-N-(2-(3-methylphenyl)ethyl)-1-(2-((3,4,5-trimethoxyphenyl)amino)-4-pyrimidinyl)-3-piperidinecarboxamide] belongs 50 to 100 nM; to `COc1cc(Nc2nccc(N3CCC[C@H](C(=O)NCCc4ccc(Oc5ccccc5)cc4)C3)n2)cc(OC)c1OC` [Example 90, (S)-N-(2-(4-phenoxyphenyl)ethyl)-1-(2-((3,4,5-trimethoxyphenyl)amino)-4-pyrimidinyl)-3-piperidinecarboxamide], 100 to 1000 nM; to `COc1cc(Nc2nccc(N3CCC[C@H](C(=O)NCCc4ccc(C(F)(F)F)cc4)C3)n2)cc(OC)c1OC` [Example 91, (S)-N-(2-(4-(trifluoromethyl)phenyl)ethyl)-1-(2-((3,4,5-trimethoxyphenyl)amino)-4-pyrimidinyl)-3-piperidinecarboxamide], 50 to 100 nM.
As to `COc1cc(Nc2nccc(N3CCC[C@H](C(=O)NCCc4ccc(C)cc4)C3)n2)cc(OC)c1OC` [Example 92, (S)-N-(2-(4-methylphenyl)ethyl)-1-(2-((3,4,5-trimethoxyphenyl)amino)-4-pyrimidinyl)-3-piperidinecarboxamide], the IC50 under setting [1] was in the range of 100 to 1000 nM.
